Data: US9562060B2, “Heterocyclic pyridone compound, and intermediate, preparation method and use thereof” (SHANGHAI HUILUN LIFE SCIENCE & TECHNOLOGY CO., LTD, priority 2011, dated 2017)
Read-outs that look alike come from different tables or passages of the source.

How the values were obtained:
c-Met kinase = molecular target: T1, c-Met kinase (Homo sapiens, UniProt P08581); experiment: Inhibitory activity of compound to c-Met kinases (Z'-LYTE kinase assay kit); assay type: biochemical; conditions: Tyr 6 substrate peptide, read-out: Strength of activity (inhibition on c-Met kinase, IC50)
T1 construct: purchased Invitrogen PV3143
T1 sequence (P08581 25-1390): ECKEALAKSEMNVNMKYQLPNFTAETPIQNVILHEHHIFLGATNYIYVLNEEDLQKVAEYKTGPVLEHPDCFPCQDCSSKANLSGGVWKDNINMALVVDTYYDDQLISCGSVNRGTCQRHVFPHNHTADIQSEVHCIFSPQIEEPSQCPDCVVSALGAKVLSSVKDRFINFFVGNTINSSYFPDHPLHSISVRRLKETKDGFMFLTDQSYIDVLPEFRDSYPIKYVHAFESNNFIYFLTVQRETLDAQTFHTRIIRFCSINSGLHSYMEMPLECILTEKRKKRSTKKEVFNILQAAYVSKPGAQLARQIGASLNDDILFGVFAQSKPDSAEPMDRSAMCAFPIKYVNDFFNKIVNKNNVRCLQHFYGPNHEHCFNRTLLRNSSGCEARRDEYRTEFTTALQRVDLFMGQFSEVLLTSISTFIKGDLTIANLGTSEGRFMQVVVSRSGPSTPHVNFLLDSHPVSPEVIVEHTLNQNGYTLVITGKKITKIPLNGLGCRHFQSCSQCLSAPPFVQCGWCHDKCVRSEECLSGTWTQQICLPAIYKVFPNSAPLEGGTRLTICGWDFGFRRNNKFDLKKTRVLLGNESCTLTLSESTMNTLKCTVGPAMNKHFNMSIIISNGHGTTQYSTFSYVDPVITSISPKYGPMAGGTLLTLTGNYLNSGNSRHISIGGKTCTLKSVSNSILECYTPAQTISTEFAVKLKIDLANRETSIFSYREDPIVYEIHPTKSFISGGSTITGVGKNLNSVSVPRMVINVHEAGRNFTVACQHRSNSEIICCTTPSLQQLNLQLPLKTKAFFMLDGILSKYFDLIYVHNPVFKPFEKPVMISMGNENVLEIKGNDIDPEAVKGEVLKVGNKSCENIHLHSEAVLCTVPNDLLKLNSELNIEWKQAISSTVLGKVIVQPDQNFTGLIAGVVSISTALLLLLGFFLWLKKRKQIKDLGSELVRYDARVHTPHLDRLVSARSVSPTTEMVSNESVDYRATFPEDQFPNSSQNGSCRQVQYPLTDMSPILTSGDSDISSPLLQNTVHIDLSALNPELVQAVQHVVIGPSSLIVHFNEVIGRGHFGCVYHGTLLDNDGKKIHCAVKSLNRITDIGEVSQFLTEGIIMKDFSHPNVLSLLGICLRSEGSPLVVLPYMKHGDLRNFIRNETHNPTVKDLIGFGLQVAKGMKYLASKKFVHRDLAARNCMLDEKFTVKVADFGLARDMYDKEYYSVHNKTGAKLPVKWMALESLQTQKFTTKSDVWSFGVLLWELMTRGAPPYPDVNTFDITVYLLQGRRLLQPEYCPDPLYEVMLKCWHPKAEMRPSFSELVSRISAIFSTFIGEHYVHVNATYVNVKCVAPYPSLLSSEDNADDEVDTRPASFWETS
Procedure: The inhibitory activity of the compound to c-Met kinases in vitro is determined through the following method.
The method described below can be used to determine the inhibiting capacity of the compound of the present invention on the c-Met kinase activity, and the inhibiting capacity is represented by IC50. The half inhibitory concentration IC50 (a concentration of the compound for inhibiting the enzyme activity to 50%) of the compound is obtained by: mixing and reacting a certain amount of kinase with a specific substrate and different concentrations of test compound, and then labeling the substrate with an anti-phosphotyrosine antibody and a […], and finally quantitatively determining the c-Met kinase activity through a time-resolved fluorescence method.
The specific experiment is implemented by using a Z′-LYTE kinase assay kit (Invitrogen, item PV4122). First, the test compound is diluted into 8 different concentrations from 100 μM at an interval of 1:5 with an ATP solution (Invitrogen, item PV3227); 5 μL 2×c-Met (Invitrogen, item PV3143) and 2×Z′-LYTE Tyr 6 substrate peptide are respectively taken up, and added to a 384-well microtiter plate, 5 μL diluted different concentrations of test compound are added in sequence, and the lid is closed. The microtiter plate is incubated for 60 min at room temperature (20° C. to 25° C.); and then 5 μL […] is added, and the lid is closed. The microtiter plate is incubated for 60 min at room temperature (20° C. to 25° C.); and then 5 μL termination reagent is added to the reaction well, to terminate the reaction. Finally, the fluorescence intensity (OD400) of each well is determined in a fluorescence analyzer (excitation wavelength: 400 nm). The inhibition rate is calculated, and the half inhibitory concentration (IC50) of the compound is calculated according to the inhibition rates of different concentrations.
For a negative control group, except that test compound (replaced by 5 μL ATP solution) is not added, all the other reagents are added. In addition, an enzyme-free control group (that is, blank group) is set.

[1] = test system: Human gastric cancer cell SNU-5; experiment: Inhibition of in vitro proliferation of human gastric cancer cell SNU-5 (SRB); assay type: cell-based; conditions: SNU-5 cells, 72-hr agent treatment, read-out: Strength of activity (inhibition on SNU-5, IC50)
Procedure: Human gastric cancer cells SNU-5 are cultured in an IMDM medium containing 20% fetal bovine serum, and the culture conditions are 37° C. and 5% CO2. Tumor cells are inoculated in a 96-well plate, and after 24-hr sidewall growth, 9 different concentrations of (1 to 30000 nM) an agent are added, after 72-hr agent treatment, the medium is discarded, the cells are fixed by cold trichloroacetic acid, and then dyed with a sulforhodamine B (SRB) solution. Unbound SRB is washed off, and SRB bound with protein was dissolved with Tris, the OD is determined at a wavelength of 510 nm by a microplate reader, and the cell growth inhibition rate is calculated according to the following equation: Inhibition rate=(OD of control well-OD of administered well)/OD of control well×100%
According to the inhibition rates of different concentrations, the half inhibitory concentration IC50 is calculated by using a Logit method.

Nc1cc(Oc2ccc(NC(=O)c3cc4ncsc4n(-c4ccccc4CCO)c3=O)cc2F)ccn1 [Embodiment 18]
IC50 (c-Met kinase): 100 to 1000 nM
IC50 ([1]; Homo sapiens): 500 to 5000 nM

CN1CCN(C(=O)Nc2nccc(Oc3ccc(NC(=O)c4cc5ncsc5n(-c5ccc(F)cc5)c4=O)cc3F)c2Cl)CC1 [Embodiment 16]
IC50 (c-Met kinase): 100 to 1000 nM
IC50 ([1]; Homo sapiens): 100 to 500 nM

Cc1n[nH]c2nccc(Oc3ccc(NC(=O)c4cc5ncsc5n(-c5ccc(F)cc5)c4=O)cc3F)c12 [Embodiment 8]
IC50 (c-Met kinase): 10 to 100 nM
IC50 ([1]; Homo sapiens): 500 to 5000 nM

CN(C)c1c(C(=O)Nc2ccc(Oc3ccnc(N)c3)c(F)c2)c(=O)n(-c2ccc(F)cc2)c2scnc12 [Embodiment 52]
IC50 (c-Met kinase): 10 to 100 nM

Cn1ncc2cc(C(=O)Nc3ccc(Oc4ccnc(N)c4Cl)c(F)c3)c(=O)n(-c3ccc(F)cc3)c21 [Embodiment 29]
IC50 (c-Met kinase): < 10 nM
IC50 ([1]; Homo sapiens): < 100 nM

COc1cc2c(Oc3ccc(NC(=O)c4cc5cnn(C)c5n(-c5ccc(F)cc5)c4=O)cc3F)ccnc2cc1OCCCN1CCOCC1 [Embodiment 32]
IC50 (c-Met kinase): 100 to 1000 nM
IC50 ([1]; Homo sapiens): 100 to 500 nM

COc1cc2c(Oc3ccc(NC(=O)c4cc5ncn(C)c5n(-c5ccc(F)cc5)c4=O)cc3F)ccnc2cc1OCCCN1CCOCC1 [Embodiment 37]
IC50 (c-Met kinase): < 10 nM
IC50 ([1]; Homo sapiens): 100 to 500 nM

CCOc1c(C(=O)Nc2ccc(Oc3ccnc(N)c3Cl)c(F)c2)c(=O)n(-c2ccc(F)cc2)c2scnc12 [Embodiment 49]
IC50 (c-Met kinase): < 10 nM

O=C(Nc1ccc(Oc2ccnc3[nH]ccc23)c(F)c1)c1cc2ncsc2n(-c2ccccc2CCO)c1=O [Embodiment 21]
IC50 (c-Met kinase): 10 to 100 nM
IC50 ([1]; Homo sapiens): < 100 nM

Cn1ncc2cc(C(=O)Nc3ccc(Oc4ccnc(N)c4)c(F)c3)c(=O)n(-c3ccc(F)cc3)c21 [Embodiment 28]
IC50 (c-Met kinase): 100 to 1000 nM
IC50 ([1]; Homo sapiens): 500 to 5000 nM

CN1CCOc2cc(C(=O)Nc3ccc(Oc4ccnc(N)c4)c(F)c3)c(=O)n(-c3ccc(F)cc3)c21 [Embodiment 39]
IC50 (c-Met kinase): 10 to 100 nM

CCOc1c(C(=O)Nc2ccc(Oc3ccnc(N)c3)c(F)c2)c(=O)n(-c2ccc(F)cc2)c2scnc12 [Embodiment 48]
IC50 (c-Met kinase): 100 to 1000 nM

Cn1ncc2cc(C(=O)Nc3ccc(Oc4ccnc5[nH]ccc45)c(F)c3)c(=O)n(-c3ccc(F)cc3)c21 [Embodiment 31]
IC50 (c-Met kinase): 10 to 100 nM
IC50 ([1]; Homo sapiens): 100 to 500 nM

CN(C)c1nc2cc(C(=O)Nc3ccc(Oc4ccnc5[nH]ccc45)c(F)c3)c(=O)n(-c3ccc(F)cc3)c2s1 [Embodiment 26]
IC50 (c-Met kinase): 10 to 100 nM
IC50 ([1]; Homo sapiens): 100 to 500 nM

O=C(Nc1ccc(Oc2ccnc(NC(=O)N3CCOCC3)c2)c(F)c1)c1cc2ncsc2n(-c2ccc(F)cc2)c1=O [Embodiment 11]
IC50 (c-Met kinase): 10 to 100 nM

CN1CCOc2cc(C(=O)Nc3ccc(Oc4ccnc(N)c4Cl)c(F)c3)c(=O)n(-c3ccc(F)cc3)c21 [Embodiment 38]
IC50 (c-Met kinase): 100 to 1000 nM
IC50 ([1]; Homo sapiens): 500 to 5000 nM

CN(CCO)C(=O)Nc1cc(Oc2ccc(NC(=O)c3cc4ncsc4n(-c4ccc(F)cc4)c3=O)cc2F)ccn1 [Embodiment 14]
IC50 (c-Met kinase): 10 to 100 nM

CCn1cnc(-c2cc3nccc(Oc4ccc(NC(=O)c5cc6ncsc6n(-c6ccc(F)cc6)c5=O)cc4F)c3s2)c1 [Embodiment 7]
IC50 (c-Met kinase): 10 to 100 nM
IC50 ([1]; Homo sapiens): 100 to 500 nM

CCOc1c(C(=O)Nc2ccc(Oc3ccnc4[nH]ccc34)c(F)c2)c(=O)n(-c2ccc(F)cc2)c2scnc12 [Embodiment 51]
IC50 (c-Met kinase): 100 to 1000 nM
IC50 [1]: 100 to 500 nM

COc1cc2c(Oc3ccc(NC(=O)c4cc5c(n(-c6ccc(F)cc6)c4=O)OCCN5C)cc3F)ccnc2cc1OCCCN1CCOCC1 [Embodiment 45]
IC50 (c-Met kinase): 100 to 1000 nM

CN(C)c1c(C(=O)Nc2ccc(Oc3ccnc(N)c3Cl)c(F)c2)c(=O)n(-c2ccc(F)cc2)c2scnc12 [Embodiment 53]
IC50 (c-Met kinase): < 10 nM

COc1ccc2c(Oc3ccc(NC(=O)c4cc5cnn(C)c5n(-c5ccc(F)cc5)c4=O)cc3F)ccnc2c1 [Embodiment 30]
IC50 (c-Met kinase): 100 to 1000 nM

COc1cc2c(Oc3ccc(NC(=O)c4cc5c(n(-c6ccc(F)cc6)c4=O)N(C)CCO5)cc3F)ccnc2cc1OCCCN1CCOCC1 [Embodiment 42]
IC50 (c-Met kinase): 100 to 1000 nM

COc1ccc2c(Oc3ccc(NC(=O)c4cc5nc(N(C)C)sc5n(-c5ccc(F)cc5)c4=O)cc3F)ccnc2c1 [Embodiment 25]
IC50 (c-Met kinase): 100 to 1000 nM
IC50 ([1]; Homo sapiens): 500 to 5000 nM

CN(CCO)c1c(C(=O)Nc2ccc(Oc3ccnc4[nH]ccc34)c(F)c2)c(=O)n(-c2ccc(F)cc2)c2scnc12 [Embodiment 59]
IC50 (c-Met kinase): 100 to 1000 nM

CN(C)C/C=C/C(=O)Nc1cc(Oc2ccc(NC(=O)c3cc4ncsc4n(-c4ccc(F)cc4)c3=O)cc2F)ccn1 [Embodiment 15]
IC50 (c-Met kinase): 10 to 100 nM

CCOc1c(C(=O)Nc2ccc(Oc3ccnc4cc(OC)ccc34)c(F)c2)c(=O)n(-c2ccc(F)cc2)c2scnc12 [Embodiment 50]
IC50 (c-Met kinase): 10 to 100 nM

Cn1cnc2cc(C(=O)Nc3ccc(Oc4ccnc(N)c4Cl)c(F)c3)c(=O)n(-c3ccc(F)cc3)c21 [Embodiment 33]
IC50 (c-Met kinase): 10 to 100 nM

CN1CCOc2c1cc(C(=O)Nc1ccc(Oc3ccnc(N)c3Cl)c(F)c1)c(=O)n2-c1ccc(F)cc1 [Embodiment 46]
IC50 (c-Met kinase): 10 to 100 nM

CN1CCN(C(=O)Nc2cc(Oc3ccc(NC(=O)c4cc5ncsc5n(-c5ccc(F)cc5)c4=O)cc3F)ccn2)CC1 [Embodiment 10]
IC50 (c-Met kinase): 100 to 1000 nM
IC50 ([1]; Homo sapiens): < 100 nM

COc1cc2c(Oc3ccc(NC(=O)c4cc5ncsc5n(-c5ccccc5CCO)c4=O)cc3F)ccnc2cc1OCCCN1CCOCC1 [Embodiment 22]
IC50 (c-Met kinase): > 1000 nM
IC50 ([1]; Homo sapiens): 500 to 5000 nM

CN(C)c1c(C(=O)Nc2ccc(Oc3ccnc4[nH]ccc34)c(F)c2)c(=O)n(-c2ccc(F)cc2)c2scnc12 [Embodiment 55]
IC50 (c-Met kinase): 10 to 100 nM

O=C(Nc1ccc(Oc2ccnc(NC(=O)N3CCCC3)c2)c(F)c1)c1cc2ncsc2n(-c2ccc(F)cc2)c1=O [Embodiment 9]
IC50 (c-Met kinase): < 10 nM
IC50 [1]: 100 to 500 nM

COc1ccc2c(Oc3ccc(NC(=O)c4cc5c(n(-c6ccc(F)cc6)c4=O)OCCN5C)cc3F)ccnc2c1 [Embodiment 47]
IC50 (c-Met kinase): < 10 nM

Cn1cnc2cc(C(=O)Nc3ccc(Oc4ccnc(N)c4)c(F)c3)c(=O)n(-c3ccc(F)cc3)c21 [Embodiment 35]
IC50 (c-Met kinase): 100 to 1000 nM

Cn1cnc(-c2cc3nccc(Oc4ccc(NC(=O)c5cc6ncsc6n(-c6ccc(F)cc6)c5=O)cc4F)c3s2)c1 [Embodiment 6]
IC50 (c-Met kinase): 10 to 100 nM
IC50 [1]: 100 to 500 nM

Cn1cnc2cc(C(=O)Nc3ccc(Oc4ccnc5[nH]ccc45)c(F)c3)c(=O)n(-c3ccc(F)cc3)c21 [Embodiment 36]
IC50 (c-Met kinase): 10 to 100 nM
IC50 ([1]; Homo sapiens): 500 to 5000 nM

COc1ccc2c(Oc3ccc(NC(=O)c4cc5ncsc5n(-c5ccccc5CCO)c4=O)cc3F)ccnc2c1 [Embodiment 20]
IC50 (c-Met kinase): 100 to 1000 nM
IC50 ([1]; Homo sapiens): < 100 nM

COc1ccc2c(Oc3ccc(NC(=O)c4cc5c(n(-c6ccc(F)cc6)c4=O)N(C)CCO5)cc3F)ccnc2c1 [Embodiment 40]
IC50 (c-Met kinase): < 10 nM

O=C(Nc1ccc(Oc2ccnc(NC(=O)N3CCC(O)CC3)c2)c(F)c1)c1cc2ncsc2n(-c2ccc(F)cc2)c1=O [Embodiment 12]
IC50 (c-Met kinase): 10 to 100 nM
IC50 ([1]; Homo sapiens): 100 to 500 nM

COc1cc2c(Oc3ccc(NC(=O)c4cc5nc(N(C)C)sc5n(-c5ccc(F)cc5)c4=O)cc3F)ccnc2cc1OCCCN1CCOCC1 [Embodiment 27]
IC50 (c-Met kinase): 10 to 100 nM

Nc1nccc(Oc2ccc(NC(=O)c3cc4ncsc4n(-c4ccccc4CCO)c3=O)cc2F)c1Cl [Embodiment 19]
IC50 (c-Met kinase): < 10 nM

CN(C)c1nc2cc(C(=O)Nc3ccc(Oc4ccnc(N)c4Cl)c(F)c3)c(=O)n(-c3ccc(F)cc3)c2s1 [Embodiment 23]
IC50 (c-Met kinase): 10 to 100 nM
IC50 ([1]; Homo sapiens): 100 to 500 nM

CN(C)CC1CCN(C(=O)Nc2cc(Oc3ccc(NC(=O)c4cc5ncsc5n(-c5ccc(F)cc5)c4=O)cc3F)ccn2)CC1 [Embodiment 13]
IC50 (c-Met kinase): 10 to 100 nM

CN1CCOc2c1cc(C(=O)Nc1ccc(Oc3ccnc(N)c3)c(F)c1)c(=O)n2-c1ccc(F)cc1 [Embodiment 43]
IC50 (c-Met kinase): 10 to 100 nM

O=C(Nc1ccc(Oc2ccnc(NC(=O)N3CCOCC3)c2Cl)c(F)c1)c1cc2ncsc2n(-c2ccc(F)cc2)c1=O [Embodiment 17]
IC50 (c-Met kinase): < 10 nM
IC50 ([1]; Homo sapiens): 100 to 500 nM

CN(CCO)c1c(C(=O)Nc2ccc(Oc3ccnc(N)c3Cl)c(F)c2)c(=O)n(-c2ccc(F)cc2)c2scnc12 [Embodiment 57]
IC50 (c-Met kinase): 100 to 1000 nM

CN(C)c1nc2cc(C(=O)Nc3ccc(Oc4ccnc(N)c4)c(F)c3)c(=O)n(-c3ccc(F)cc3)c2s1 [Embodiment 24]
IC50 (c-Met kinase): < 10 nM
IC50 ([1]; Homo sapiens): 100 to 500 nM
